We go through 1 compound from patent US10703821B2, “Method for stimulating or enhancing proliferation of cells by activating the mucin 1 (MUC1) receptor” (MINERVA BIOTECHNOLOGIES CORPORATION, priority 2005, dated 2020).

This assay deals with PSMGFR region of MUC1. Briefly: western blot of ERK2 phosphorylation, competition with anti-PSMGFR. The assay is classed as cell-based. From the text:
FIG. 6 is a western blot of a competition experiment in which small molecules that bind to the PSMGFR region of MUC1 compete with anti-PSMGFR for binding to the site. […] The chemical formula for the competitor compound MN 9 referred to in this figure is […]

In the case of `O=C(c1ccc2ccccc2c1)N1CCc2c([nH]c3ccccc23)C1c1ccc(C(F)(F)F)cc1` (centres unmarked) [MN 9], the “binding of anti-PSMGFR to the PSMGFR site in competition” value (in the presence of competitor small molecule) is given as “the antibody does not bind”. The ERK2 phosphorylation result (in the presence of competitor small molecule and anti-PSMGFR) is listed as “ERK2 phosphorylation is inhibited”.
